According to PMC7465886, “4-(N-Alkyl- and -Acyl-amino)-1,2,4-triazole-3-thione Analogs as Metallo-β-Lactamase Inhibitors: Impact of 4-Linker on Potency and Spectrum of Inhibition” (Biomolecules, 2020):
Like-named read-outs stand apart in the source and are kept apart here.

Tests used:
VIM-2 [1] = molecular target: T1, VIM-2 (Escherichia coli, UniProt Q5U7L7); details: cited from earlier work; for Ki: Schiff base analogs, read-out: Ki Value VIM-2, hydrazone-like compound (converted); for Inhibition of VIM-2 (dash in Ki column), corresponding hydrazone-like compound: in parentheses, 100 μM inhibitor
T1 construct: made in house; host or cells: E. coli BL21(DE3) derivative, pET-9a

IMP-1 [2] = molecular target: T2, IMP-1 (Serratia marcescens, UniProt P52699); set-up: method as in PMID 32937203; details: cited from earlier work; for Ki: value in parentheses, read-out: Ki Value IMP-1, corresponding hydrazone-like compound (converted); for Inhibition of IMP-1 (dash in Ki column), corresponding hydrazone-like compound: in parentheses, 100 μM inhibitor
T2 construct: made in house; host or cells: E. coli BL21(DE3) derivative, pET-9a

NDM-1 [3] = molecular target: T3, NDM-1 (Klebsiella pneumoniae, UniProt C7C422); set-up: method as in PMID 32937203; details: cited from earlier work; for Inhibition of NDM-1 (dash in Ki column), corresponding hydrazone-like compound: in parentheses, 100 μM inhibitor; for Ki: Schiff base analogs, read-out: Ki Value NDM-1, hydrazone-like compound (converted)
NDM-1 [4] = molecular target: T3, NDM-1; test: MBL inhibition, reporter substrate method, NDM-1; type: biochemical; details: value in parentheses; analogs of compounds 5 and 6 (this work); read-out: Ki Value NDM-1, corresponding hydrazone-like compound
Protocol: (§1) Compounds were prepared in DMSO at a final concentration of 50 mM prior to dilution in the assay buffer. The reaction rate was measured as the variation of absorbance observed upon substrate hydrolysis in a UV-Vis spectrophotometer or microplate reader at a wavelength of 300 nm (imipenem, meropenem), 260 nm (cefotaxime), or 482 nm (nitrocefin) and in the presence of a purified MBL enzyme (such as VIM-1, VIM-2, VIM-4, NDM-1, and IMP-1, at a final concentration ranging from 1 to 70 nM).
(§2) These enzymes were overproduced in derivatives of E. coli BL21(DE3) carrying a pET-9 a (IMP-1, VIM-1, VIM-2, and VIM-4) or pET-15 b (NDM-1) vector into which the metallo-β-lactamase-encoding open reading frame was cloned. Bacterial strains were grown in the auto-inducing medium, ZYP-5052, supplemented with 50 μg/mL kanamycin for 24 h at 37 °C [38]. IMP-1, VIM-1, VIM-2, and VIM-4 were purified by ion-exchange and gel filtration chromatography using an AKTA Purifier platform (GE Healthcare, Uppsala, Sweden) as previously described. NDM-1 (residues 37-270) was produced as an amino-terminal 6 xHis-tag fusion protein and was purified using affinity chromatography. After growth for 26 h at 25 °C, bacterial cells were harvested by centrifugation (10,000× g, 30 min, 4 °C), resuspended in 10 mM HEPES buffer (pH 7.5) containing 0.15 M NaCl (buffer A) in one-fifth of the original culture volume, and lysed by sonication. Cellular debris was removed by centrifugation (12,000× g, 40 min, 4 °C). The clarified sample was loaded on a HisTrap HP column (bed volume, 5 mL; GE Healthcare), followed by a wash step (25 mL) with buffer A containing 20 mM imidazole. Proteins were eluted using buffer A containing 350 mM imidazole. The resulting protein sample was desalted (HiPrep 26/10 Desalting column, GE Healthcare) using 20 mM triethanolamine (pH 7.2) supplemented with 50 μM ZnSO4 and concentrated using an Amicon Ultra-15 (MW cut-off, 10 kDa; Millipore, Burlington, MA, USA). The concentrated sample was loaded on a Superdex 75 prep grade column (XK16/100 column; bed volume, 140 mL; GE Healthcare) and the proteins eluted with buffer A containing 50 μM ZnSO4. The active fractions were pooled and stored at −20 °C. The purity of the protein preparations was estimated >95% by SDS-PAGE analysis. The authenticity of the enzyme preparations was confirmed by electron spray ionization mass spectrometry, as previously described.
(§3) The inhibition constants (Ki) were determined on the basis of a model of competitive inhibition by analyzing the dependence of the ratio v0/vi (v0, hydrolysis velocity in the absence of inhibitor; vi, hydrolysis velocity in the presence of inhibitor) as a function of [I] as already described. The slope of the plot of v0/vi vs. [I], which corresponds to Km^S/(Km^S + [S])Ki (where Km^S is the Km value of the reporter substrate and [S] its concentration in the reaction mixture) and allowed the calculation of the Ki value. Alternatively, a Dixon plot analysis was carried out by measuring the initial hydrolysis rates in the presence of variable concentrations of inhibitor and substrate. This allowed Ki values to be determined and supported the hypothesis that the various compounds behaved as competitive inhibitors of the various tested enzymes. The assays were performed in triplicate.

IMP-1 [5] = molecular target: T2, IMP-1; test: MBL inhibition, reporter substrate method, IMP-1; type: biochemical; details: value in parentheses; analogs of compounds 5 and 6 (this work); read-out: Ki Value IMP-1, corresponding hydrazone-like compound
Protocol: as §1, §2, §3

VIM-2 [6] = molecular target: T1, VIM-2; test: MBL inhibition, reporter substrate method, VIM-2; type: biochemical
Protocol: as §1, §2, §3

T2 sequence (P52699 19-246 limits assumed): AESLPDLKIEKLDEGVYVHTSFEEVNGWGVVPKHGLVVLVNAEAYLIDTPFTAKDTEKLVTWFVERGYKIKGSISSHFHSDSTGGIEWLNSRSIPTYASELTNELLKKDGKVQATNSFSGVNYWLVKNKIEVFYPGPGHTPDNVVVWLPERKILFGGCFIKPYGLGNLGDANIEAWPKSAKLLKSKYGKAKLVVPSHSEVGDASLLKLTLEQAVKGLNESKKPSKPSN
T3 sequence (C7C422 37-270 limits assumed): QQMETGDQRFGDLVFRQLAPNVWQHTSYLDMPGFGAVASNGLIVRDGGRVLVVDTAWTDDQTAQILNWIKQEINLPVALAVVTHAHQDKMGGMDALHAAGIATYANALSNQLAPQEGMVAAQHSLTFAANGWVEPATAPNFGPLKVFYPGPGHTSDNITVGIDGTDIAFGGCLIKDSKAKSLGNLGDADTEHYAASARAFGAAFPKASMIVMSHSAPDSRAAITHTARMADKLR

SMILES	Ki (VIM-2 [1]) [µM]	Ki (IMP-1 [2]) [µM]	Inhibition of NDM-1 (dash in Ki column), corresponding hydrazone-like compound (NDM-1 [3])	Ki (NDM-1 [3]) [µM]	Inhibition of IMP-1 (dash in Ki column), corresponding hydrazone-like compound (IMP-1 [2])	further results
Cc1ccccc1-c1n[nH]c(=S)n1N=Cc1ccccc1C(=O)O [hydrazone-like analog of 2]	3	58	- (-) (<40% of inhibition in the presence of 100 μM inhibitor)			
O=C(O)c1ccccc1C=Nn1c(-c2cccc(-c3ccccc3)c2)n[nH]c1=S [hydrazone-like analog of 3]	0.2	18		4.2		
O=C(O)c1ccccc1C=Nn1c(-c2ccc3ccccc3c2)n[nH]c1=S [hydrazone-like analog of 4]	0.7	6.9		2.3		
O=C(O)c1ccccc1C=Nn1c(-c2cc3ccccc3[nH]2)n[nH]c1=S [hydrazone-like analog of 5]						Ki (NDM-1 [4]): 9.4 µM; Ki (IMP-1 [5]): 55 µM; inhibition at 100 µM (VIM-2 [6]; read-out: Inhibition of VIM-2 (dash in Ki column), corresponding hydrazone-like compound): < 40%
O=C(O)c1ccccc1C=Nn1c(Cc2ccccc2)n[nH]c1=S [hydrazone-like analog of 6]						Ki (NDM-1 [4]): 42 µM; Ki (IMP-1 [5]): 28 µM; Ki (VIM-2 [6]; value in parentheses, analogs of compounds 5 and 6 (this work), read-out: Ki Value VIM-2, corresponding hydrazone-like compound (converted)): 3.2 µM
O=C(O)c1ccccc1C=Nn1c(Cc2ccc3ccccc3c2)n[nH]c1=S [hydrazone-like analog of 7]	2.4	34		1.6		
O=C(O)c1ccccc1C=Nn1c(CCc2ccccc2)n[nH]c1=S [hydrazone-like analog of 8]	7		- (-) (<40% of inhibition in the presence of 100 μM inhibitor)		- (-) (<40% of inhibition in the presence of 100 μM inhibitor)	
O=[N+]([O-])c1ccccc1C=Nn1c(CCc2ccccc2)n[nH]c1=S [hydrazone-like analog of 9]			- (-) (<40% of inhibition in the presence of 100 μM inhibitor)		- (-) (<40% of inhibition in the presence of 100 μM inhibitor)	Inhibition of VIM-2 (dash in Ki column), corresponding hydrazone-like compound (VIM-2 [1]): - (-) (<40% of inhibition in the presence of 100 μM inhibitor)
O=C(O)c1ccc(C=Nn2c(CCc3ccccc3)n[nH]c2=S)cc1 [hydrazone-like analog of 10]		11	- (-) (<40% of inhibition in the presence of 100 μM inhibitor)			Inhibition of VIM-2 (dash in Ki column), corresponding hydrazone-like compound (VIM-2 [1]): - (-) (<40% of inhibition in the presence of 100 μM inhibitor)
O=C(O)c1ccccc1C=Nn1c(CC(c2ccccc2)c2ccccc2)n[nH]c1=S [hydrazone-like analog of 11]	25			2.7	- (-) (<40% of inhibition in the presence of 100 μM inhibitor)	
O=C(O)c1ccccc1C=Nn1c(COc2ccc3ccccc3c2)n[nH]c1=S [hydrazone-like analog of 12]	2			2.4	- (-) (<40% of inhibition in the presence of 100 μM inhibitor)	
